SMILES strings stand for the structures. Activity calls are given as the source filed them. The rule behind the calls is not given here.

Assay [1] addresses T1, Fatty-acid amide hydrolase 1 (Mus musculus, UniProt O08914).
T1 sequence (O08914 whole entry): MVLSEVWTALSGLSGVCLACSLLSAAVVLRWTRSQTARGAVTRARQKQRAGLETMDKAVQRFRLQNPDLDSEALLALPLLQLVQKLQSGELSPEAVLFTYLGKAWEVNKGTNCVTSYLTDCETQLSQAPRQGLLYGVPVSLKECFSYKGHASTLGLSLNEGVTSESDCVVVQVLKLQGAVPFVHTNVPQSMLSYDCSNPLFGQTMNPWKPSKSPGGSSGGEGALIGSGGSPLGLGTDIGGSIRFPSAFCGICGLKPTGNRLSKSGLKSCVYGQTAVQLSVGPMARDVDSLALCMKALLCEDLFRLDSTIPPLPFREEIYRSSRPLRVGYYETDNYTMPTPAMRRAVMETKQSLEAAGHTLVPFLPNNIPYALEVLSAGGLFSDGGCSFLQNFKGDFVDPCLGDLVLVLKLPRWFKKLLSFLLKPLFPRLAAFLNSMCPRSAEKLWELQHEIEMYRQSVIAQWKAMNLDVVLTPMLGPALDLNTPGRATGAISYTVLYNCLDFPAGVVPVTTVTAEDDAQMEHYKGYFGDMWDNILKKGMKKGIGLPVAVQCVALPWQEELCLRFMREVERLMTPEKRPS
As to the kind of experiment: Inhibition of FP-rhodamine probe binding to FAAH in mouse brain membrane proteome preincubated for 1 hr followed by FP-rhodamine addition and measured after 30 mins by SDS-PAGE based fluorescence assay. In kind it is cell membranes.

The species entered for assay [2] is Mus musculus. As to the kind of experiment: Selectivity ratio of IC50 for inhibition of FP-rhodamine probe binding to ABHD6 in mouse brain membrane proteome to IC50 for inhibition of FP-rhodamine probe binding to MGLL in mouse brain membrane proteome. In kind it is cell membranes.
Assay [3] is described as follows: Inhibition of recombinant rat FAAH deltaTM mutant expressed in Escherichia coli using 14C-labeled oleamide as substrate preincubated for 3 hrs followed by substrate addition and measured by TLC based Dixon-plot analysis. The conditions noted are these: read-out: Ki(app).
Assay [4] deals with T2, Neutral cholesterol ester hydrolase 1 (Mus musculus, UniProt Q8BLF1).
T2 sequence (Q8BLF1 whole entry): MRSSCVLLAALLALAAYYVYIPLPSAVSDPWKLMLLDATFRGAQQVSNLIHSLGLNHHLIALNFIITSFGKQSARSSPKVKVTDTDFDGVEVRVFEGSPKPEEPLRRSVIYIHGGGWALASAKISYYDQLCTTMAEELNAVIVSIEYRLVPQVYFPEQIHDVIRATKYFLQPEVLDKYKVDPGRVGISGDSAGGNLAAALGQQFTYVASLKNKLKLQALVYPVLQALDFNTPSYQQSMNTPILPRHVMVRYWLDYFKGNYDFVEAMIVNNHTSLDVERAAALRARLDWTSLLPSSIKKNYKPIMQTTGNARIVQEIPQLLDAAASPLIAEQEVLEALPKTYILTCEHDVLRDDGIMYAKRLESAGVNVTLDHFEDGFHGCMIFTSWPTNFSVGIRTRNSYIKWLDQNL
As to the kind of experiment: Inhibition of FP-rhodamine probe binding to KIAA1363 in mouse brain membrane proteome preincubated for 1 hr followed by FP-rhodamine addition and measured after 30 mins by SDS-PAGE based fluorescence assay. In kind it is cell membranes.

The target of assay [5] is T3, Monoacylglycerol lipase ABHD6 (Mus musculus, UniProt Q8R2Y0).
T3 sequence (Q8R2Y0 whole entry): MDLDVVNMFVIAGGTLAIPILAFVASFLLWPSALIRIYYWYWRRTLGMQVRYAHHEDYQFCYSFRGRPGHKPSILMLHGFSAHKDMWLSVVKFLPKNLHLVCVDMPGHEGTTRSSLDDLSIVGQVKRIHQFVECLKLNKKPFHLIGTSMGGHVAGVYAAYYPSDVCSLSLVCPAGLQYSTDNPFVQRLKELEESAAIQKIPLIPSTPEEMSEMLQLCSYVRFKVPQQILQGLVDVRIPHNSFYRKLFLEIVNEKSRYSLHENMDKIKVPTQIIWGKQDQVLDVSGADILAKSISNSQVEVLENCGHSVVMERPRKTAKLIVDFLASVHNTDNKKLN
The assay can be described thus: Inhibition of FP-rhodamine probe binding to ABHD6 in mouse brain membrane proteome preincubated for 1 hr followed by FP-rhodamine addition and measured after 30 mins by SDS-PAGE based fluorescence assay. The class given is cell membranes.

Assay [6] addresses T4, Monoglyceride lipase (Mus musculus, UniProt O35678).
T4 sequence (O35678 whole entry): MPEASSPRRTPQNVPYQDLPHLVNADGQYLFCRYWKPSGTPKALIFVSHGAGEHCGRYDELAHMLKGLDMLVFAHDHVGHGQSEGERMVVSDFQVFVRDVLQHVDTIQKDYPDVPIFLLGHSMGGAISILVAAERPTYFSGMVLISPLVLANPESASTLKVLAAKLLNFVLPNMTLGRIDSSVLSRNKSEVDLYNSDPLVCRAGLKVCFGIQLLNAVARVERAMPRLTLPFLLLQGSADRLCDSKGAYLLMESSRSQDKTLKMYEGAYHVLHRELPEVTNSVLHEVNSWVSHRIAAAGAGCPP
The assay can be described thus: Inhibition of FP-rhodamine probe binding to MGLL in mouse brain membrane proteome preincubated for 1 hr followed by FP-rhodamine addition and measured after 30 mins by SDS-PAGE based fluorescence assay. The class given is cell membranes.

For assay [7], the species on record is Rattus norvegicus. As to the kind of experiment: Time-dependent irreversible inhibition of recombinant rat FAAH deltaTM mutant expressed in Escherichia coli using 14C-labeled oleamide as substrate by TLC method.
Assay [8] is filed under the species Rattus norvegicus. The assay can be described thus: Irreversible inhibition of recombinant rat FAAH deltaTM mutant expressed in Escherichia coli at 10 nM using 14C-labeled oleamide as substrate preincubated for 3 hrs followed by dialysis for 18 hrs.
The species entered for assay [9] is Rattus norvegicus. As to the kind of experiment: Inhibition of recombinant rat FAAH deltaTM mutant expressed in Escherichia coli at 10 nM using 14C-labeled oleamide as substrate preincubated for 3 hrs by TLC method relative to control.

Regarding `N#Cc1cnn(C(=O)N2CCN(C(c3ccc(OCc4ccccc4)cc3)c3ccc(OCc4ccccc4)cc3)CC2)c1`, the IC50 is 790000 nM in assay [1], greater than 100000 nM in [4], 130000 nM in [5] and 20 nM in assay [6]. For the same molecule, the Ratio IC50 in assay [2] is greater than 1000. The Ki in assay [3] is 25000 nM.

With `N#Cc1cnn(C(=O)N2CCN(Cc3ccc(OCc4ccccc4)cc3)CC2)c1`, the IC50 in assay [1] is less than 10 nM; in assay [4], greater than 100000 nM; in assay [5], less than 10 nM; in assay [6] it was less than 10 nM. In assay [7], the TDI result is “Active”. Also, the inhibition result in [8] was “Active”. For the same molecule, in assay [9], the inhibition is greater than 70%. In assay [3], the Ki was determined as 0.16 nM.

With `N#Cc1cnn(C(=O)N2CCN(Cc3ccc4ccccc4c3)CC2)c1`, the IC50 in assay [1] was less than 10 nM; in assay [4] it was greater than 100000 nM; in assay [5], less than 10 nM; in [6], 55 nM. For the same molecule, the inhibition entry in assay [8] was “Active”. Further, the inhibition in [9] was greater than 70%. For the same molecule, in assay [3], the Ki was determined as 0.16 nM.

Consider `N#Cc1cnn(C(=O)N2CCN(C(c3ccc4ccccc4c3)c3ccc4ccccc4c3)CC2)c1`, for which the IC50 in assay [1] was greater than 100000 nM; in [4], greater than 100000 nM; in assay [5], 560 nM; in assay [6], 8 nM. Besides, the Ratio IC50 in assay [2] is 70.

Usually IC50 stands for the midpoint of a concentration-inhibition curve. For orientation: inhibition means the change of the read-out against control, counted positive when it falls.

Values taken from ChEMBL document CHEMBL4316626, “N-Acyl pyrazoles: Effective and tunable inhibitors of serine hydrolases” (Bioorg Med Chem, 2019).
